Among the data in patent US11981658B2, “Substituted aminopyridine compounds as EGFR inhibitors” (YUHAN CORPORATION, priority 2021, dated 2024) are IC50 values, retold here.

One assay concerns the target EGFR L858R/C797S (Homo sapiens, UniProt P00533, C797S/L858R). Description: Biochemical EGFR kinase inhibition assay (Lance Ultra TR-FRET), double mutant L858R/C797S. The gist of the method:
(§1)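 Enzyme reactions lasted 1 hour at room temperature with test compounds between 0.003 and 10 μM, followed by 10 mM EDTA quench.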
(In general: In TR-FRET formats the signal depends on donor and acceptor labels being close together.)

A further assay deals with EGFR Del19/T790M/C797S (Homo sapiens, UniProt P00533, C797S/DEL746-750/T790M). Briefly: Biochemical EGFR kinase inhibition assay (Lance Ultra TR-FRET), triple mutant del19/T790M/C797S. The gist of the method:
as §1

The next assay has as its target EGFR wildtype (WT) (Homo sapiens, UniProt P00533). Briefly: Biochemical EGFR kinase inhibition assay (Lance Ultra TR-FRET), wildtype. In a few lines: as §1
In a further assay the target is EGFR Del19/C797S (Homo sapiens, UniProt P00533, C797S/DEL746-750). Briefly: Biochemical EGFR kinase inhibition assay (Lance Ultra TR-FRET), double mutant del19/C797S. The gist of the method:
as §1

In the next assay the target is EGFR L858R/T790M/C797S (Homo sapiens, UniProt P00533, C797S/L858R/T790M). Description: Biochemical EGFR kinase inhibition assay (Lance Ultra TR-FRET), triple mutant L858R/T790M/C797S. In a few lines:
as §1

Setting [1] is: IC50 L858R/C797S (nM), 100 μM ATP.
Where [2] appears, read: Km ATP, read-out: IC50 L858R/C797S (nM) Km ATP.
[3] abbreviates: IC50 Del19/T790M/C797S (nM), 100 μM ATP.
The mark [4] stands for this setting: Km ATP, read-out: IC50 Del19/T790M/C797S (nM) Km ATP.
The mark [5] stands for this setting: Km ATP, read-out: IC50 WT (nM) Km ATP.
Setting [6] is: IC50 Del19/C797S (nM), 100 μM ATP.
[7] abbreviates: Km ATP, read-out: IC50 Del19/C797S (nM) Km ATP.
Setting [8] is: IC50 L858R/T790M/C797S (nM), 100 μM ATP.
[9] abbreviates: Km ATP, read-out: IC50 L858R/T790M/C797S (nM) Km ATP.

The structures appear in SMILES notation. Where two headings read alike, the source gives them in different places.

Sequence of EGFR L858R/T790M/C797S (P00533 25-1210 T790M/C797S/L858R): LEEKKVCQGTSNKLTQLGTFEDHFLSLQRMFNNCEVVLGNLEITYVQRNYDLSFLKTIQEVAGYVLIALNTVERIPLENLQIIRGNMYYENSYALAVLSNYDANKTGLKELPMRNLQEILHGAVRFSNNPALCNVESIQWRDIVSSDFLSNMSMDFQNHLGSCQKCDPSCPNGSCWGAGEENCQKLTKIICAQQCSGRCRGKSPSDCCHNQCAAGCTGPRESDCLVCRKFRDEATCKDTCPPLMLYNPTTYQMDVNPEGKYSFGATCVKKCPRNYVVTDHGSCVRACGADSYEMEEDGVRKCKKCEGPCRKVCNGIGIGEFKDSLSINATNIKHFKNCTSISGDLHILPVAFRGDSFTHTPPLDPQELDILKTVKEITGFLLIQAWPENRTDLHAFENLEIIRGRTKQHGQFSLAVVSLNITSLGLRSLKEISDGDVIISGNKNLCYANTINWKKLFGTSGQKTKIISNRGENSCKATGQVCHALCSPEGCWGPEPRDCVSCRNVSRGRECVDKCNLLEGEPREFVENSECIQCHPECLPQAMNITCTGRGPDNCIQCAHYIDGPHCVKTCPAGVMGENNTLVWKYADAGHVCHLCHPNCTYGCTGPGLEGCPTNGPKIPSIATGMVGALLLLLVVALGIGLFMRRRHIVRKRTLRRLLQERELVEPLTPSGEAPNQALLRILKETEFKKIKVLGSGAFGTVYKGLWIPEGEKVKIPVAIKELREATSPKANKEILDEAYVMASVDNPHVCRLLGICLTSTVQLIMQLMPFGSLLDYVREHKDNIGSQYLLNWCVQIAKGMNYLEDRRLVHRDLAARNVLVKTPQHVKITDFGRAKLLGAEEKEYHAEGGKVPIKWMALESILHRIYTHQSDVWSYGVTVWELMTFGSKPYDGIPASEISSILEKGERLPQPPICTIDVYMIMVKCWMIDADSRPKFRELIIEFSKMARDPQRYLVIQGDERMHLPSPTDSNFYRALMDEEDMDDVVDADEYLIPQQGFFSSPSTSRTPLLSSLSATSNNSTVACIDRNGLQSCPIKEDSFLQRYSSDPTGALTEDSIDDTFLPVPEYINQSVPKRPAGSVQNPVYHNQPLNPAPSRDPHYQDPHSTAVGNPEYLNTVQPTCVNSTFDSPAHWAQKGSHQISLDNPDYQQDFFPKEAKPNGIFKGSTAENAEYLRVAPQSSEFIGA
Sequence of EGFR Del19/T790M/C797S (P00533 with tags, fused parts or gaps DEL746-750/T790M/C797S): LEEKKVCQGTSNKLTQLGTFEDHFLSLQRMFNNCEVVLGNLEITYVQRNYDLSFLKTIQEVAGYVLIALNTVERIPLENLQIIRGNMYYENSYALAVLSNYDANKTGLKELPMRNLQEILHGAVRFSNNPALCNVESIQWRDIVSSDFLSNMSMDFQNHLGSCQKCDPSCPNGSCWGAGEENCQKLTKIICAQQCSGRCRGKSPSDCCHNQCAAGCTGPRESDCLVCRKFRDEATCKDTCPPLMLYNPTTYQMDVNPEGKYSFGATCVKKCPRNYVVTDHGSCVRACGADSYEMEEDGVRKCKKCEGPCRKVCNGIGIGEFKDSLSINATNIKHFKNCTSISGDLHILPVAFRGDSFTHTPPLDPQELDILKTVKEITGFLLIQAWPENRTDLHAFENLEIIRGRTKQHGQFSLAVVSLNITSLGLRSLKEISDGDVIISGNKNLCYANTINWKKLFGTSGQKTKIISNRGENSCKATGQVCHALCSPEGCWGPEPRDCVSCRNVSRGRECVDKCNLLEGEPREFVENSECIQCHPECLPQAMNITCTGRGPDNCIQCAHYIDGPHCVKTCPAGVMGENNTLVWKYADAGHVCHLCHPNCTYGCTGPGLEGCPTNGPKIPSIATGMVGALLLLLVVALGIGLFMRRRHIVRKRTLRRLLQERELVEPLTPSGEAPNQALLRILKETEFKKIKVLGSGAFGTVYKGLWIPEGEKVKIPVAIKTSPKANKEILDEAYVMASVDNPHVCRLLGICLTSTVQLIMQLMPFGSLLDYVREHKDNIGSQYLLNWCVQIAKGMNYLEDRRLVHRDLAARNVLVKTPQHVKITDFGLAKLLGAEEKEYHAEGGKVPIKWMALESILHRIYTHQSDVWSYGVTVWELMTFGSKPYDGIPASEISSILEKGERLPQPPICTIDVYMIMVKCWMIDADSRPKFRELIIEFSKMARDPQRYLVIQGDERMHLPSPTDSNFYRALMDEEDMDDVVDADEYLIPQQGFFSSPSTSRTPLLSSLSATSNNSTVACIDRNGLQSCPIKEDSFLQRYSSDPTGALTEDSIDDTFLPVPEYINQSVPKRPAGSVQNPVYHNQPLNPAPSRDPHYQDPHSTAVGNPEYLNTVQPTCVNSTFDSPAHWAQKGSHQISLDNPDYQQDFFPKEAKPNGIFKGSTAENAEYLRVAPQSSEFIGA
Sequence of EGFR wildtype (WT) (P00533 25-1210): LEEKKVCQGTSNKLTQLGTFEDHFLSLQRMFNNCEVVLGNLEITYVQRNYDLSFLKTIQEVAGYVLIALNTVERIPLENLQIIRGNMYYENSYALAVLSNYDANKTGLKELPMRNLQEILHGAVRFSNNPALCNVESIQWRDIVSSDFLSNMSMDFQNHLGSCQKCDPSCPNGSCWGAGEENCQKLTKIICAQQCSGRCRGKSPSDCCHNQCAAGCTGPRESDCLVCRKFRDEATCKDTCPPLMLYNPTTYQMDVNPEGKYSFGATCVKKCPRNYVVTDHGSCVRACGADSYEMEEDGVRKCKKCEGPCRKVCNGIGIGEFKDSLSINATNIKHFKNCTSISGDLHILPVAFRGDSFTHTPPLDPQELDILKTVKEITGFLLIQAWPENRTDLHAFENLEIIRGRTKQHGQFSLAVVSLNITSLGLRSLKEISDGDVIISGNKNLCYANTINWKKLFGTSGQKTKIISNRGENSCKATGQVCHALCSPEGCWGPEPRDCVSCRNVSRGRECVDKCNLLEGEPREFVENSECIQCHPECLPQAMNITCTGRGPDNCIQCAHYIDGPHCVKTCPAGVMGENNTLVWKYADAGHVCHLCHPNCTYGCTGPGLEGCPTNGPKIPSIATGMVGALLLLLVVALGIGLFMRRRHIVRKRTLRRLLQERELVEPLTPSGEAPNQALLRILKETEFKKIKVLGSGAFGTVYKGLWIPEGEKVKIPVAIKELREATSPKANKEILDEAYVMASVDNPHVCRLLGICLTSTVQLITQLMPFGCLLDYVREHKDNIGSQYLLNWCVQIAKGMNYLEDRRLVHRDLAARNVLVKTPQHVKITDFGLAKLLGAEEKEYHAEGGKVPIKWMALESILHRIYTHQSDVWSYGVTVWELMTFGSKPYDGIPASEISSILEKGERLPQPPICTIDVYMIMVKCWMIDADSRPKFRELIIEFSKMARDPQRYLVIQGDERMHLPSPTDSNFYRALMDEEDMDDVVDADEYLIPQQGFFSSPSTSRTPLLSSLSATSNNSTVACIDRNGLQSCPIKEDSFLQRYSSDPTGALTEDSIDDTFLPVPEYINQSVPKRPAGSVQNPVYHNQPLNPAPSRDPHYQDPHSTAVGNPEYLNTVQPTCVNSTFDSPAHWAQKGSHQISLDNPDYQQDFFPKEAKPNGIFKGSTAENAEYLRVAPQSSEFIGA
Sequence of EGFR Del19/C797S (P00533 with tags, fused parts or gaps DEL746-750/C797S): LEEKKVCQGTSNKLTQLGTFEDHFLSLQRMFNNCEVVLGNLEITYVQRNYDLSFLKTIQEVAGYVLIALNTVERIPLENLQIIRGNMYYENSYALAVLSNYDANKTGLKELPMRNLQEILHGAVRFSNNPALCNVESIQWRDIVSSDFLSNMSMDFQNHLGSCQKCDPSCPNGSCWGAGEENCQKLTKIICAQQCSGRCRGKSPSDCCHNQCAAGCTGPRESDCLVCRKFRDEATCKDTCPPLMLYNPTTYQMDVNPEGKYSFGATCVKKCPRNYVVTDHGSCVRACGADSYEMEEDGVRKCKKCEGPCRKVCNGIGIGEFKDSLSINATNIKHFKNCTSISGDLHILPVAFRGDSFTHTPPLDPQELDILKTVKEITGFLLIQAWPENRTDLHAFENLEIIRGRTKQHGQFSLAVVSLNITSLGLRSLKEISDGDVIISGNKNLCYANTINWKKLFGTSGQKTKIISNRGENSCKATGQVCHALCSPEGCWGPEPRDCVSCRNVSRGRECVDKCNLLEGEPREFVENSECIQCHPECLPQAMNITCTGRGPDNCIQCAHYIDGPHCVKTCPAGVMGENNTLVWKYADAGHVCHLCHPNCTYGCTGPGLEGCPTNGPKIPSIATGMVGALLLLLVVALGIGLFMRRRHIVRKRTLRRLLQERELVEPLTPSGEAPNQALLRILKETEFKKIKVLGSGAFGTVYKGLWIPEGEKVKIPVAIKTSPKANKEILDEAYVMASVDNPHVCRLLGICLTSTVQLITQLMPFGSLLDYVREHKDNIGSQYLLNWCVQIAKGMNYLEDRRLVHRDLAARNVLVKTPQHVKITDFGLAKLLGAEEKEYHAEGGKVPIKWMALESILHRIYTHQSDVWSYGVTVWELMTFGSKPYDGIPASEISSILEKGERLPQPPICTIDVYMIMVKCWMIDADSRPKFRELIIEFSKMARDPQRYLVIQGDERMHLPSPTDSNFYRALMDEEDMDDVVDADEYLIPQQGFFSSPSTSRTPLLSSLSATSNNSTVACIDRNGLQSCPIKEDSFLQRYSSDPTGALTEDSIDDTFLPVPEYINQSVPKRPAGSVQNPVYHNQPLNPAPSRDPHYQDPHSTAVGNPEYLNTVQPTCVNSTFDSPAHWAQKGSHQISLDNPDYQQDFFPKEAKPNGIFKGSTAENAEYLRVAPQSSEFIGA

For `O=S(=O)(C1CC1)n1cc(-c2nccc(Nc3cc(N4CCC(F)CC4)c(C#Cc4cnn(C5CCOCC5)c4)cn3)n2)cn1` [Example 97, 2-(1-(Cyclopropylsulfonyl)-1H-pyrazol-4-yl)-N-(4-(4-fluoropiperidin-1-yl)-5-((1-(tetrahydro-2H-pyran-4-yl)-1H-pyrazol-4-yl)ethynyl)pyridin-2-yl)pyrimidin-4-amine], the IC50 against EGFR L858R/C797S (setting [1]) was 162 nM; on EGFR L858R/C797S (setting [2]), 9.2 nM; at EGFR Del19/T790M/C797S (setting [3]) it was 1.8 nM; at EGFR Del19/T790M/C797S (setting [4]), 1.8 nM; at EGFR wildtype (WT) (IC50 WT (nM), 100 μM ATP) it was greater than 10000 nM; on EGFR wildtype (WT) (setting [5]), 86.5 nM. For the same compound, the IC50 was 25.1 nM at EGFR Del19/C797S (setting [6]), 18.3 nM on EGFR Del19/C797S (setting [7]), 5.9 nM against EGFR L858R/T790M/C797S (setting [8]) and 1.7 nM on EGFR L858R/T790M/C797S (setting [9]).

On to `Cn1cc(C#Cc2cnc(Nc3ccnc(-c4cnn(S(=O)(=O)C5CC5)c4)n3)cc2N2CCC(N3CC(F)(F)C3)CC2)cn1` [Example 128, 2-(1-(Cyclopropylsulfonyl)-1H-pyrazol-4-yl)-N-(4-(4-(3,3-difluoroazetidin-1-yl)piperidin-1-yl)-5-((1-methyl-1H-pyrazol-4-yl)ethynyl)pyridin-2-yl)pyrimidin-4-amine], for which the IC50 is 73 nM on EGFR L858R/C797S (setting [1]); 7.1 nM on EGFR Del19/T790M/C797S (setting [3]); greater than 10000 nM at EGFR wildtype (WT) (IC50 WT (nM), 100 μM ATP); 29.5 nM at EGFR Del19/C797S (setting [6]); 4.8 nM against EGFR L858R/T790M/C797S (setting [8]).

`COC1(O)CCN(c2cc(Nc3ccnc(-c4cnn(S(=O)(=O)C5CC5)c4)n3)ncc2C#Cc2ccc(CN3CCN(C)CC3)cc2)CC1` [Example 369, 1-(2-((2-(1-(Cyclopropylsulfonyl)-1H-pyrazol-4-yl)pyrimidin-4-yl)amino)-5-((4-((4-methylpiperazin-1-yl)methyl)phenyl)ethynyl)pyridin-4-yl)-4-methoxypiperidin-4-ol]: the IC50 on EGFR L858R/C797S (setting [1]) is 6.4 nM; at EGFR L858R/C797S (Km ATP, read-out: IC50 L858R/C797S (nM), Km ATP), 2.4 nM; on EGFR Del19/T790M/C797S (setting [3]), 0.4 nM; at EGFR Del19/T790M/C797S (Km ATP, read-out: IC50 Del19/T790M/C797S (nM), Km ATP) it was 0.9 nM; at EGFR wildtype (WT) (IC50 WT (nM), 100 μM ATP), 1200 nM; on EGFR wildtype (WT) (Km ATP, read-out: IC50 WT (nM), Km ATP) it was 3.1 nM. The IC50 at EGFR Del19/C797S (setting [6]) stood at 2 nM; at EGFR Del19/C797S (Km ATP, read-out: IC50 Del19/C797S (nM), Km ATP) it was 1.9 nM; against EGFR L858R/T790M/C797S (setting [8]), 0.4 nM; at EGFR L858R/T790M/C797S (Km ATP, read-out: IC50 L858R/T790M/C797S (nM), Km ATP), 0.3 nM.

For the compound `CN(C)Cc1ccc(CNc2cc(Nc3ccnc(-c4cnn(S(=O)(=O)C5CC5)c4)n3)ncc2C#Cc2cnn(CCF)c2)cc1` [Example 51, N^2-(2-(1-(Cyclopropylsulfonyl)-1H-pyrazol-4-yl)pyrimidin-4-yl)-N^4-(4-((dimethylamino)methyl)benzyl)-5-((1-(2-fluoroethyl)-1H-pyrazol-4-yl)ethynyl)pyridine-2,4-diamine], the IC50 was 49.1 nM on EGFR L858R/C797S (setting [2]); 0.9 nM on EGFR Del19/T790M/C797S (setting [4]); 262 nM at EGFR wildtype (WT) (setting [5]); 68.6 nM on EGFR Del19/C797S (setting [7]); 3.2 nM on EGFR L858R/T790M/C797S (setting [9]).

In the case of `Cn1cc(C#Cc2cnc(Nc3ccnc(-c4cnn(S(=O)(=O)C5CC5)c4)n3)cc2N2CCC3(CCNC3)CC2)cn1` [Example 156, 2-(1-(Cyclopropylsulfonyl)-1H-pyrazol-4-yl)-N-(5-((1-methyl-1H-pyrazol-4-yl)ethynyl)-4-(2,8-diazaspiro[4.5]decan-8-yl)pyridin-2-yl)pyrimidin-4-amine], the IC50 at EGFR L858R/C797S (ATP at Km, read-out: IC50 L858R/C797S (nM), Km ATP) was 1.2 nM; on EGFR L858R/C797S (setting [1]), 9 nM; on EGFR Del19/T790M/C797S (ATP at Km, read-out: IC50 Del19/T790M/C797S (nM), Km ATP), 0.1 nM; against EGFR Del19/T790M/C797S (setting [3]), 0.1 nM; on EGFR wildtype (WT) (ATP at Km, read-out: IC50 WT (nM), Km ATP), 2.6 nM; on EGFR wildtype (WT) (IC50 WT (nM), 100 μM ATP), 2100 nM. For the same compound, the IC50 was 0.3 nM at EGFR Del19/C797S (ATP at Km, read-out: IC50 Del19/C797S (nM), Km ATP); 0.4 nM at EGFR Del19/C797S (setting [6]); 0.04 nM at EGFR L858R/T790M/C797S (ATP at Km, read-out: IC50 L858R/T790M/C797S (nM), Km ATP); 0.1 nM against EGFR L858R/T790M/C797S (setting [8]).

With `Cn1cnc(C#Cc2cnc(Nc3ccnc(-c4cnn(S(=O)(=O)C5CC5)c4)n3)cc2N[C@@H]2CC[C@H](O)C2)c1` [Example 223, (1S,3R)-3-((2-((2-(1-(Cyclopropylsulfonyl)-1H-pyrazol-4-yl)pyrimidin-4-yl)amino)-5-((1-methyl-1H-imidazol-4-yl)ethynyl)pyridin-4-yl)amino)cyclopentan-1-ol], the IC50 against EGFR L858R/C797S (setting [1]) was 44.7 nM; at EGFR Del19/T790M/C797S (setting [3]), 0.5 nM; against EGFR wildtype (WT) (IC50 WT (nM), 100 μM ATP) it was greater than 10000 nM; against EGFR Del19/C797S (setting [6]) it was 6.7 nM; against EGFR L858R/T790M/C797S (setting [8]), 0.8 nM.
